This is an account of results in ChEMBL document CHEMBL4840335, “Rational Design and Development of Novel CDK9 Inhibitors for the Treatment of Acute Myeloid Leukemia” (J Med Chem, 2021).

Active and inactive are the calls of the source. The calls are words filed in the database; no cut-off is given here.

Test [1] concerns the target CDK9/cyclin T1 (Homo sapiens) (UniProt O60563+P50750). Kind of test: Inhibition of CDK9/cyclin T1 (unknown origin) at 10 uM incubated for 2 hrs in presence of ATP by FRET based LANCE assay relative to control. Format: protein-complex assay. (TR-FRET usually uses a lanthanide donor and a delayed reading to cut background.)
The target of a further test is CDK9/cyclin T1 (Homo sapiens, UniProt P50750). As to the kind of experiment: Inhibition of CDK9/cyclin T1 (unknown origin) incubated for 2 hrs in presence of ATP by FRET based LANCE assay. The format is protein-complex assay.
The target of test [2] is Cyclin-dependent kinase 4 (Homo sapiens, UniProt P11802). Kind of test: Inhibition of CDK4 (unknown origin).
For test [3], the target named is Cyclin-dependent kinase 2 (Homo sapiens, UniProt P24941). Kind of test: Inhibition of CDK2 (unknown origin).
The target in test [4] is Cyclin-dependent kinase 6 (Homo sapiens, UniProt Q00534). Kind of test: Inhibition of CDK6 (unknown origin).
For test [5], the target named is Cyclin-dependent kinase 7 (Homo sapiens, UniProt P50613). As to the kind of experiment: Inhibition of CDK7 (unknown origin).
The test system of test [6] is MV4-11. As to the kind of experiment: Induction of apoptosis in human MV4-11 cells assessed as early apoptotic cells at 10 nM measured after 24 hrs by annexinV-FITC/propidium iodide staining based flow cytometry (reference value: 0.79 %). Format: functional.
Test [7] relates to MV4-11. Kind of test: Induction of apoptosis in human MV4-11 cells assessed as late apoptotic cells at 10 nM measured after 24 hrs by annexinV-FITC/propidium iodide staining based flow cytometry (reference value: 3.04 %). Format: functional. Background: Flow cytometry measures light scatter and fluorescence of single cells or particles in a stream.
The test system of the next test is JeKo-1. Kind of test: Antiproliferative activity against human JeKo-1 cells assessed as reduction in cell proliferation measured after 3 to 7 days by MTS assay. Format: functional, cell-based. (In general: Tetrazolium assays rely on reduction of a dye to a coloured formazan, in cell work by metabolically active cells.)
A further test relates to OCI-Ly10. As to the kind of experiment: Antiproliferative activity against human OCILY10 cells assessed as reduction in cell proliferation measured after 3 to 7 days by MTS assay. The format is functional, cell-based.
A further test relates to HL-60. Kind of test: Antiproliferative activity against human HL-60 cells assessed as reduction in cell proliferation measured after 3 to 7 days by MTS assay. The format is functional, cell-based.
For test [8], the system named is MV4-11. Kind of test: Induction of apoptosis in human MV4-11 cells assessed as live cells at 50 nM measured after 24 hrs by annexinV-FITC/propidium iodide staining based flow cytometry (reference value: 95.14 %). Format: functional.
For test [9], the system named is MV4-11. As to the kind of experiment: Induction of apoptosis in human MV4-11 cells assessed as live cells at 10 nM measured after 24 hrs by annexinV-FITC/propidium iodide staining based flow cytometry (reference value: 95.14 %). Format: functional.
In test [10] the test system is MV4-11. As to the kind of experiment: Induction of apoptosis in human MV4-11 cells assessed as activation of caspase-3 at 5 to 50 nM measured after 24 hrs by Western blot analysis. The format is functional, cell-based. Particulars: dose 5-50 nM.
Test [11] in a line: Antiproliferative activity against human MINO cells assessed as reduction in cell proliferation measured after 3 to 7 days by MTS assay. The format is functional, cell-based.
The test system of the next test is RPMI-8226. Kind of test: Antiproliferative activity against human RPMI-8226 cells assessed as reduction in cell proliferation measured after 3 to 7 days by MTS assay. Format: functional, cell-based.
Another test deals with MM1.S. As to the kind of experiment: Antiproliferative activity against human MM1.S cells assessed as reduction in cell proliferation measured after 3 to 7 days by MTS assay. Format: functional, cell-based.
Test [12] relates to MV4-11. Kind of test: Induction of apoptosis in human MV4-11 cells assessed as early apoptotic cells at 50 nM measured after 24 hrs by annexinV-FITC/propidium iodide staining based flow cytometry (reference value: 0.79 %). The format is functional.
Test [13] concerns MV4-11. Kind of test: Antiproliferative activity against human MV4-11 cells assessed as reduction in cell proliferation measured after 3 to 7 days by MTS assay. The format is functional, cell-based.
Test [14] has as its system MV4-11. Kind of test: Induction of apoptosis in human MV4-11 cells assessed as late apoptotic cells at 50 nM measured after 24 hrs by annexinV-FITC/propidium iodide staining based flow cytometry (reference value: 3.04 %). Format: functional.
The test system of test [15] is MV4-11. Kind of test: Induction of apoptosis in human MV4-11 cells assessed as necrotic cells at 10 nM measured after 24 hrs by annexinV-FITC/propidium iodide staining based flow cytometry (reference value: 1.03 %). Format: functional.
Test [16] has as its system MV4-11. As to the kind of experiment: Induction of apoptosis in human MV4-11 cells assessed as activation of cleaved PARP at 5 to 50 nM measured after 24 hrs by Western blot analysis. The format is functional, cell-based. The conditions noted are these: dose 5-50 nM.
For the next test, the system named is Z-138. As to the kind of experiment: Antiproliferative activity against human Z138 cells assessed as reduction in cell proliferation measured after 3 to 7 days by MTS assay. The format is functional, cell-based.
A further test relates to Raji. Kind of test: Antiproliferative activity against human Raji cells assessed as reduction in cell proliferation measured after 3 to 7 days by MTS assay. Format: functional, cell-based.
In another test the test system is Kasumi 1. As to the kind of experiment: Antiproliferative activity against human Kasumi 1 cells assessed as reduction in cell proliferation measured after 3 to 7 days by MTS assay. The format is functional, cell-based.
Test [17] relates to MV4-11. As to the kind of experiment: Induction of apoptosis in human MV4-11 cells assessed as necrotic cells at 50 nM measured after 24 hrs by annexinV-FITC/propidium iodide staining based flow cytometry (reference value: 1.03 %). Format: functional.
For another test, the system named is CCRF-CEM. As to the kind of experiment: Antiproliferative activity against human CCRF-CEM cells assessed as reduction in cell proliferation measured after 3 to 7 days by MTS assay. The format is functional, cell-based.
The subject of another test is TMD8. Kind of test: Antiproliferative activity against human TMD8 cells assessed as reduction in cell proliferation measured after 3 to 7 days by MTS assay. The format is functional, cell-based.

Sequence of Cyclin-dependent kinase 7 (P50613 whole entry): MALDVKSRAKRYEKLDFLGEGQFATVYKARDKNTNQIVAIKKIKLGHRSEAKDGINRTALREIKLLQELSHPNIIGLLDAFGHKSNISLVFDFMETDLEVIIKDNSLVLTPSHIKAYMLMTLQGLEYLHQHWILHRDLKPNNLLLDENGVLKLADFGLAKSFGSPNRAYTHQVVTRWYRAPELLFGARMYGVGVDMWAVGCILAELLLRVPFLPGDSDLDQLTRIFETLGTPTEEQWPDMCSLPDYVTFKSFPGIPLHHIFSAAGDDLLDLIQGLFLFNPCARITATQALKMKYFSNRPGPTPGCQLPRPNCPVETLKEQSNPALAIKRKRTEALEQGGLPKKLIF
Sequence of Cyclin-dependent kinase 6 (Q00534 whole entry): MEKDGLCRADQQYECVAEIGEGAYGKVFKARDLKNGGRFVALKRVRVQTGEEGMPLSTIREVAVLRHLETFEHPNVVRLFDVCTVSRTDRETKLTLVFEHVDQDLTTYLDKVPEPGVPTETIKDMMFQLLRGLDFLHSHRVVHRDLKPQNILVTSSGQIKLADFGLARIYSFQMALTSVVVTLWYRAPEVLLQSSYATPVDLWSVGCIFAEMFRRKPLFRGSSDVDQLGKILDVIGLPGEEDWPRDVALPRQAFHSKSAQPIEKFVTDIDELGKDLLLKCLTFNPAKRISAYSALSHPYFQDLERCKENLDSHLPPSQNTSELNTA
Sequence of CDK9/cyclin T1 (O60563 whole entry): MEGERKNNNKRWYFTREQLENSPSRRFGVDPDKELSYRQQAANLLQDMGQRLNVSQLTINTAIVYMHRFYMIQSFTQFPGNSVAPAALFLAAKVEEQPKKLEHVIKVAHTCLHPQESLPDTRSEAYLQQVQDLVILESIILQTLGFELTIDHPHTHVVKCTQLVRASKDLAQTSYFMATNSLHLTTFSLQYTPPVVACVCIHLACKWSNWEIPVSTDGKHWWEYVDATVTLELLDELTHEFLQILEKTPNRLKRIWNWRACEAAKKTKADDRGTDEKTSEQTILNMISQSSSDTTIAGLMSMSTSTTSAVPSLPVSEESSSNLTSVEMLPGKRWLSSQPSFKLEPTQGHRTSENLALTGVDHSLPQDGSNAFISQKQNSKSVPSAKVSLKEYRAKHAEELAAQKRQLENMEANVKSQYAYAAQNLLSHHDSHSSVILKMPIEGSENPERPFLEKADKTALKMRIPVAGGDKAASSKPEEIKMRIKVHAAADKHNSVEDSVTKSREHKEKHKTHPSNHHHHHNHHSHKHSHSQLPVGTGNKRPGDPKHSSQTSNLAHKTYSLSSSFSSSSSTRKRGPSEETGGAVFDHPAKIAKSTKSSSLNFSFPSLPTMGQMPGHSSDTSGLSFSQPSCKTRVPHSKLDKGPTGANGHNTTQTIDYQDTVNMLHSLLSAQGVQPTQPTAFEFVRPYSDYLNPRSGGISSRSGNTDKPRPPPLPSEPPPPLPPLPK
Sequence of CDK9/cyclin T1 (P50750 whole entry): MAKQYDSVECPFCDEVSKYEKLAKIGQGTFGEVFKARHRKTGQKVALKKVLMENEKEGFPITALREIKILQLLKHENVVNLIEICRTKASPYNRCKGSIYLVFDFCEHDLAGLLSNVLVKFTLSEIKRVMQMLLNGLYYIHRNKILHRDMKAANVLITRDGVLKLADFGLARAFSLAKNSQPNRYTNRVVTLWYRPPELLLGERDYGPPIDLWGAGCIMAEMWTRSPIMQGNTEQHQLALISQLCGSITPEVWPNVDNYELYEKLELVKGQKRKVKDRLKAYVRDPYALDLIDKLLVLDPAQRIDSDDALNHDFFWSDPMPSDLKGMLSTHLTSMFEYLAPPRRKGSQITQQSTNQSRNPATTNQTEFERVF
Sequence of Cyclin-dependent kinase 4 (P11802 whole entry): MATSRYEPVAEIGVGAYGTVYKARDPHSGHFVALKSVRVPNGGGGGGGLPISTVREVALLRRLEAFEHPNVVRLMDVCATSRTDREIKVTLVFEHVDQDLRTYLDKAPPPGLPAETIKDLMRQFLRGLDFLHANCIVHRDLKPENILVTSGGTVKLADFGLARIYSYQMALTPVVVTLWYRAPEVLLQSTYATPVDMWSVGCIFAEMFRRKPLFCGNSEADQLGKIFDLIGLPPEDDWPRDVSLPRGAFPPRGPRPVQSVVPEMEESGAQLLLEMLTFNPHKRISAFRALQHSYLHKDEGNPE

By inhibition is commonly meant the drop in the measured response relative to a control, in per cent. Regarding `O=C1Cc2cc(-c3cncc(NC(CO)c4ccccc4)n3)ccc2N1` (centres undefined), the inhibition in [1] stood at 31.4%.
Broadly, the IC50 is the concentration that inhibits the measured activity by half. With `Cc1n[nH]c2ccc(-c3cncc(NC(C)CO)n3)cc12` (centres undefined), the IC50 at CDK9/cyclin T1 is 995 nM.
As for `Cc1n[nH]c2ccc(-c3cncc(N[C@@H](CO)c4ccc(F)cc4)n3)cc12`, the IC50 is 20.4 nM on CDK9/cyclin T1; more than 1000 nM in test [2]; 56.1 nM in test [3]; more than 1000 nM in [4]; more than 1000 nM in [5].
On to `COC[C@H](C)N[C@H]1CC[C@H](Nc2cc(-c3cccc(NCC4(C#N)CCOCC4)n3)c(Cl)cn2)CC1`, for which the Activity was found to be 3.33% in the test with MV4-11 [6]; 15.48% with MV4-11 [7]; 4.36% with MV4-11 [8]; 77.97% in the test on MV4-11 [9]; 1.8% with MV4-11 [12]; 77.18% with MV4-11 [14]. In addition, the Activity in the test on MV4-11 [15] is listed as 3.23%; in the test with MV4-11 [17], 16.67%. Moreover, the half-maximal inhibitory concentration (IC50) in the test on JeKo-1 was 10 nM; in the test with OCI-Ly10, 2.1 nM; in the test on HL-60, 5.7 nM; on CDK9/cyclin T1, 4.96 nM; in [2], more than 1000 nM; in [11], 5.2 nM. Also, the 50% inhibitory concentration (IC50) in the test with RPMI-8226 is 14 nM; in the test on MM1.S it was 6.3 nM; in the test with MV4-11 [13], 5.4 nM; in test [3] it was more than 1000 nM; with Z-138, 3.7 nM; in the test on Raji, 11 nM. In addition, the 50% inhibitory concentration (IC50) in test [4] is more than 1000 nM; in the test with Kasumi 1, 6.8 nM; with CCRF-CEM, 3.3 nM; in the test on TMD8, 15 nM; in test [5] it was more than 1000 nM. Besides, the outcome with MV4-11 [10] and with MV4-11 [16] was Active.
Regarding `Cc1n[nH]c2ccc(-c3cncc(N[C@@H](CO)c4ccc(F)c(F)c4)n3)cc12`, the IC50 on CDK9/cyclin T1 is 24.7 nM.
Take `O=c1[nH]c2ccc(-c3cncc(NC(CO)c4ccccc4)n3)cc2[nH]1` (centres undefined): the inhibition in [1] was 0.61%.
`Cc1n[nH]c2ccc(-c3cncc(NC(CO)c4cccc(C(F)(F)F)c4)n3)cc12` (racemic): on CDK9/cyclin T1, the IC50 was 341 nM.
Turning to `Cc1n[nH]c2ncc(-c3cncc(N[C@@H](CO)c4ccccc4)n3)cc12`, at CDK9/cyclin T1, the half-maximal inhibitory concentration (IC50) is 6.57 nM.
For the compound `Cc1n[nH]c2ncc(-c3cc(N[C@@H](CO)c4ccccc4)cnc3Cl)cc12`, the 50% inhibitory concentration (IC50) is 20.7 nM on CDK9/cyclin T1; more than 1000 nM in test [2]; more than 1000 nM in [3]; more than 1000 nM in [4]; more than 1000 nM in test [5].
In the case of `Cc1n[nH]c2ccc(-c3cc(N[C@@H](CO)c4ccc(F)cc4)cnc3Cl)cc12`, the IC50 on CDK9/cyclin T1 is 26.5 nM.
With `COc1cc(F)ccc1-c1cncc(NC(CO)c2ccccc2)n1` (centres undefined), in test [1], the inhibition turned out to be 12.4%.
Take `Cc1n[nH]c2ccc(-c3cncc(NC(CO)c4ccc(F)cc4)n3)cc12` (racemic): the IC50 at CDK9/cyclin T1 was found to be 50.3 nM.
For `COc1ccc([C@H](CO)Nc2cncc(-c3ccc4[nH]nc(C)c4c3)n2)cc1`, the IC50 on CDK9/cyclin T1 came out at 774 nM.
On the same count and under the same terms, the value for `OC[C@H](Nc1cncc(-c2ccc3[nH]ncc3c2)n1)c1ccccc1` was 42.3 nM.
Same read-out and setting: next, `OCC(Nc1cncc(-c2ccc3occc3c2)n1)c1ccccc1` (centres undefined): 8920 nM.
Turning to `OCC(Nc1cncc(-c2ccc3nccnc3c2)n1)c1ccccc1` (centres undefined), in test [1], the inhibition was 2.63%.
With `Cc1n[nH]c2ccc(-c3cncc(N[C@@H](CO)c4ccccc4)n3)cc12`, the 50% inhibitory concentration (IC50) at CDK9/cyclin T1 is 6.04 nM; in test [2], more than 1000 nM; in test [3], 67.4 nM; in test [4] it was more than 1000 nM; in test [5] it was more than 1000 nM.
As to `Cc1n[nH]c2ccc(-c3cncc(N[C@H](C)c4ccccc4)n3)cc12`, the half-inhibitory concentration (IC50) on CDK9/cyclin T1 came to 883 nM.
On the same count and under the same terms, next, `Cc1cccc(C(CO)Nc2cncc(-c3ccc4[nH]nc(C)c4c3)n2)c1` (racemic): 153 nM; `Cc1n[nH]c2ccc(-c3cncc(N[C@H](CO)c4ccccc4)n3)cc12`: 8770 nM; `Cc1n[nH]c2ccc(-c3cncc(NC(CO)c4ccc(F)c(F)c4)n3)cc12` (racemic): 27.3 nM.
Take `Cc1n[nH]c2ccc(-c3cncc(N[C@@H](CO)c4ccc(Cl)cc4)n3)cc12`: the concentration for half-maximal inhibition (IC50) at CDK9/cyclin T1 is 75.6 nM.
Still for that read-out and setting: next, `Cc1n[nH]c2ccc(-c3cncc(NC(CO)c4ccccc4F)n3)cc12` (racemic): 24.2 nM; `Cc1n[nH]c2ccc(-c3cncc(NC(CO)c4cccc(OC(F)(F)F)c4)n3)cc12` (racemic): 633 nM.
Turning to `Cc1n[nH]c2ccc(-c3cncc(N[C@@H](CO)c4cccc(F)c4)n3)cc12`, the IC50 on CDK9/cyclin T1 is 9.15 nM; in test [2], more than 1000 nM; in test [3], 34.5 nM; in test [4], more than 1000 nM; in test [5] it was 496 nM.
As to `Cc1n[nH]c2ccc(-c3cncc(N[C@H](C)c4ccc(F)cc4)n3)cc12`, the half-inhibitory concentration (IC50) at CDK9/cyclin T1 stood at 6800 nM.
For `Cc1n[nH]c2ccc(-c3cncc(NC(CO)c4ccccc4)n3)cc12` (racemic), the IC50 at CDK9/cyclin T1 is 14.2 nM; in [2], more than 1000 nM; in [3] it was 147 nM; in test [4], more than 1000 nM; in test [5], more than 1000 nM.
For `Cc1nc2c(F)cc(-c3cncc(NC(CO)c4ccccc4)n3)cc2n1C(C)C` (centres undefined), the inhibition in test [1] was 13.8%.
On to `Cc1n[nH]c2ccc(-c3cncc(NC4CCCC(O)C4)n3)cc12` (centres undefined), for which the IC50 was 643 nM on CDK9/cyclin T1; more than 1000 nM in test [2]; 52.9 nM in [3]; more than 1000 nM in test [4]; 322 nM in test [5].
